These results are taken from patent publication US20250145588A1, “CRYSTAL FORM OF TAVAPADON, AND PREPARATION METHOD THEREFOR AND USE THEREOF” (CRYSTAL PHARMACEUTICAL (SUZHOU) CO., LTD., priority 2022, published 2025).

Holding throughout (format): physicochemical
Data set [1] is described as follows: Storage stability of solid forms (crystalline form by XRPD, chemical purity by HPLC). The conditions noted are these: for Purity after storage: HPLC. The method, then:
XRPD patterns in the present disclosure were acquired by a Bruker X-ray powder diffractometer. The parameters of the X-ray powder diffraction method of the present disclosure are as follows: • X-Ray source: Cu, Kα • Kα1 (Å): 1.54060; Kα2 (Å): 1.54439 • Kα2/Kα1 intensity ratio: 0.50
A certain amount of the prior art solid obtained in Example 4 was packaged with sealed container (with desiccant inside), and stored under 40° C./75% RH. The solid form before and after storage was confirmed by XRPD.
A certain amount of Form CSI was packaged with corresponding package conditions, and then stored under 25° C./60% RH, 40° C./75% RH and 60° C./75% RH. Crystalline form and chemical purity were checked by XRPD and HPLC, respectively. Form CSI kept stable for at least 6 months when stored at 25° C./60% RH open and sealed (with desiccants) package, 40° C./75% RH open and sealed (with desiccants) package, and 60° C./75% RH sealed (with desiccants) package.
A certain amount of Form CSII sample was packaged with corresponding package conditions, and then stored at 25° C./60% RH and 40° C./75% RH. Crystalline form was checked by XRPD. Form CSII kept stable for at least 1 month for both open and sealed (with desiccants) package conditions at 25° C./60% RH and 40° C./75% RH.

Data set [2] in a line: Hygroscopicity and humidity stability by DVS (0% RH-95% RH-0% RH cycle at 25° C., XRPD before and after). The settings on record: for Hygroscopicity (in words) / Weight gain (water uptake) at 80% RH: DVS; for Form change after DVS test (humidity stability): one cycle 0% RH-95% RH-0% RH, XRPD. As for the experimental part:
DVS data in the present disclosure were measured via an SMS (Surface Measurement Systems Ltd.) intrinsic DVS instrument. The instrument control software is DVS-Intrinsic control software. Typical Parameters for DVS test are as follows: • Temperature: 25° C. • Gas and flow rate: N2, 200 mL/minRH range: 0% RH to 95% RH
The hygroscopicity of Form CSI was determined by a DVS instrument with a certain amount of sample. The mass at each relative humidity was recorded during a cycle of 0% RH-95% RH-0% RH at 25° C., and XRPD was collected before and after DVS test.
The hygroscopicity of Form CSII was determined by DVS instrument with a certain amount of sample. The mass at each relative humidity was recorded during the cycle of 0% RH-95% RH-0% RH at 25° C., and XRPD was tested before and after DVS.

Data set [3] in a line: Physical stability upon mechanical force (ball-milling, XRPD before and after grinding). The settings on record: 500 rpm, 5 minutes. As for the experimental part: Form CSI was ground using a ball-milling at a vibration speed of 500 rpm for 5 minutes.
Form CSII was ground using a ball-milling at a vibration speed of 500 rpm for 5 minutes.

“Also recorded” adds a separate entry of the source.

As for `Cc1cc(Oc2ncccc2C(F)(F)F)ccc1-c1c(C)c(=O)[nH]c(=O)n1C` (single isomer, unassigned) [Form CSI], the “Time kept stable on storage” value in data set [1] (25° C./60% RH open and sealed (with desiccants), 40° C./75% RH open and sealed (with desiccants), 60° C./75% RH sealed (with desiccants)) is “at least 6 months”. The Purity after storage in data set [1] (25° C./60% RH, open, 6 months) was 99.85%; in data set [1] (25° C./60% RH, sealed (with desiccants), 6 months) it was 99.85%; in data set [1] (40° C./75% RH, open, 6 months), 99.85%; in data set [1] (40° C./75% RH, sealed (with desiccants), 6 months) it was 99.85%; in data set [1] (60° C./75% RH, sealed (with desiccants), 6 months) it was 99.85%. Further, the “Solid form after storage” value is reported as “Form CSI” in data set [1] (25° C./60% RH, open, 6 months, XRPD); “Form CSI” in data set [1] (25° C./60% RH, sealed (with desiccants), 6 months, XRPD); “Form CSI” in data set [1] (40° C./75% RH, open, 6 months, XRPD); “Form CSI” in data set [1] (40° C./75% RH, sealed (with desiccants), 6 months, XRPD); “Form CSI” in data set [1] (60° C./75% RH, sealed (with desiccants), 6 months, XRPD). In addition, the “Time remaining unchanged on storage” value in data set [1] (40° C./75% RH) was “at least 6 months”; in data set [1] (60° C./75% RH, sealed package), “at least 6 months”. Further, the “Hygroscopicity (in words)” value in data set [2] is recorded as “almost non hygroscopic”. In addition, the “Weight gain (water uptake) at 80% RH” value in data set [2] amounted to 0.05%. Also, in data set [2], the “Form change after DVS test (humidity stability)” value is on record as “No form change; also recorded: remains unchanged”. Moreover, in data set [3], the “Form change after grinding” value is on record as “no form change; also recorded: doesn't change after grinding”.

Turning to `Cc1cc(Oc2ncccc2C(F)(F)F)ccc1-c1c(C)c(=O)[nH]c(=O)n1C` [prior art solid, reference compound], the “Solid form change after storage” value in data set [1] (40° C./75% RH, sealed container with desiccant, 10 days, XRPD) was “undergoes crystal transformation; also recorded: undergoes crystalline transformation”.

For `Cc1cc(Oc2ncccc2C(F)(F)F)ccc1-c1c(C)c(=O)[nH]c(=O)n1C` (single isomer, unassigned) [Form CSII], the “Solid form after storage” value in data set [1] (25° C./60% RH, sealed (with desiccants), 1 month, XRPD) is on record as “Form CSII”. The “Solid form after storage” value in data set [1] (40° C./75% RH, sealed (with desiccants), 1 month, XRPD) was “remains unchanged; also recorded: Form CSII”. For the same compound, the “Time kept stable on storage” value in data set [1] (open and sealed (with desiccants) package at 25° C./60% RH and 40° C./75% RH) is reported as “at least 1 month”. In data set [2], the “Hygroscopicity (in words)” value is on record as “almost non hygroscopic”, the “Weight gain (water uptake) at 80% RH” value was 0.19% and the “Form change after DVS test (humidity stability)” value is on record as “No form change; also recorded: remains unchanged”. The “Form change after grinding” value in data set [3] is listed as “no form change; also recorded: doesn't change after grinding”.
